Measured values published in PMC3467217, “A Potent Class of GPR40 Full Agonists Engages the EnteroInsular Axis to Promote Glucose Control in Rodents” (PLoS ONE, 2012).

Key:
GPR40 [1] = target: T1, GPR40 (Homo sapiens, UniProt O14842); test: Aequorin Ca2+ flux assay in CHO cell line stably expressing GPR40; format: cell-based; conditions: CHO-GPR40 stable cell line
T1 construct: expressed in transfected cells; host or cells: CHO cell line stably expressing GPR40 and aequorin
Description: Since GPR40 agonists with greater intrinsic activity may have improved anti-diabetic properties, we focused our efforts to discover potent synthetic full agonists.
(§1) GPR40 aequorin, plasmid titration, and inositol phosphate assays were performed as described. For aequorin assays, in addition to transient transfection of GPR40 into CHO cells, a CHO cell line stably expressing both GPR40 and aequorin was generated. GLUTag cells were obtained under a license from Dr. Daniel Drucker, University of Toronto. Competition binding experiments were performed using membranes prepared from A9_GPR40 cells. […] Competition binding assays were carried out in 20 mM Hepes pH 7.5, 5 mM MgCl2, 100 mM NaCl and 0.1% (w/v) free fatty acid BSA and bound radioligand was collected on 96-well GF/C filter plates.

GPR40 [2] = target: T1, GPR40; test: Competition binding with 3H-AM-1638 on A9_GPR40 membranes; conditions: unlabelled competitor
Description: as §1

GPR120 = target: T2, GPR120 (Homo sapiens, UniProt Q5NUL3); test: GPR120 aequorin assay; format: cell-based; conditions: weak activity
T2 construct: expressed in transfected cells
From the text: (A) GPR41 (FFAR3) aequorin assay. GPR41 was force coupled to the calcium signaling pathway by co-transfecting the cells with Gqmyri5. (B) GPR43 (FFAR2) aequorin assay. The short chain fatty acid propionate acts as a natural agonist ligand for GPR41 and GPR43. (C) GPR120 aequorin assay. The unsaturated fatty acids α-LNN and DHA act as natural agonist ligands for GPR120. (D) PPAR-gamma luciferase assay using the thiazolidinedione rosiglitazone as a positive control. […] (TIF) Click here for additional data file.

PPAR alpha = PPAR alpha (Homo sapiens, UniProt Q07869); test: PPAR-alpha luciferase reporter assay; format: cell-based; conditions: concentrations up to 10 µM
PPAR delta = PPAR delta (Homo sapiens, UniProt Q03181); test: PPAR-delta luciferase reporter assay; format: cell-based; conditions: concentrations up to 10 µM
mouse islets = test: GSIS assay in mouse islets; format: cell-based; conditions: 16.7 mM glucose
Description: (§2) Mouse islets were isolated and tested for stimulation of GSIS as described. Human islets were purchased from Prodo labs or were obtained from the National Institutes of Health and Juvenile Diabetes Research Foundation supported Islet Cell Resource Consortium (http://icr.coh.org). Islet inositol phosphate assays were performed on islets cells that had been dispersed with trypsin. 10,000 islet cells were plated/well of a 96-well plate and were loaded with ^3H-myo-inositol (0.5 µCi/well) in RPMI overnight prior to treatment. The next day, response to different stimuli was tested in HBSS containing 10 mM LiCl and 0.1% HSA (w/v) for 1 hour at 37°C. Accumulated ^3H-inositol phosphate was measured after capture to SPA beads. Islet perifusion experiments were performed on mouse islets loaded into a Brandel Suprafusion system. Twenty islets were size-matched and loaded per perifusion chamber. Islets were perifused in KRBH containing, sequentially, 3 mM glucose, then 3 mM glucose containing 10 µM drug, 16.7 mM glucose containing 10 µM drug and finally returned to 3 mM glucose containing 10 µM drug. Insulin was measured using an insulin ELISA kit (Alpco). Fetal rat intestinal cells were isolated from e19-day old fetuses of pregnant Sprague-Dawley rats. Briefly, fetal intestines were isolated and digested in HBSS buffer containing 0.5 mg/ml collagenase (Sigma), 0.5 mg/ml of hyaluronidase (Sigma) and 0.05 mg/ml of deoxyribonuclease I (Roche) for 30 minutes at 37°C. The digestion was quenched using HBSS containing 15% FBS. Fetal rat intestinal cells were washed and cultured overnight in DMEM containing 5% FBS in 96-well plates. To test for secretion of GLP-1 and GIP in response to treatments, we incubated cells for 1 hour with treatments in KRBH buffer containing 0.05% BSA (w/v). GLP-1 and GIP1 secreted into the media was measured using ELISA kits specific for GLP-1 (Linco) or GIP (Millipore).

[3] = system: islets isolated from GPR40 knockout mice; test: GSIS assay with islets from GPR40 knock-out mice; format: cell-based, mouse
Description: as §2

mouse GPR40 = mouse GPR40 (Mus musculus, UniProt Q76JU9); test: Mouse GPR40 inositol phosphate accumulation assay; format: cell-based
Description: as §1

HF/STZ mice = test: Single oral dose without glucose challenge in HF/STZ mice: GLP-1, insulin, glucose, GIP; format: in vivo, mouse; conditions: HF/STZ mice, single oral dose
Description: The increase in insulin secretion by GPR40 agonists is due to direct stimulation of GPR40 receptors on pancreatic β-cells, but may also be derived from stimulation of the gut peptides GLP-1 and GIP, which subsequently act on the GLP-1 and GIP G protein-coupled receptors found on pancreatic β-cells. […] No glucose challenge was performed in order to isolate the effects of the compounds alone.
(§3) All procedures on animals were approved by the Amgen San Francisco Institutional Animal Care and Use Committee (approved protocols #11–04 and #2007–00106). The Amgen San Francisco vivarium is an AAALAC accredited facility. Animals were housed under a 12-h light, 12-h dark cycle (lights-on 0600 h and lights-off 1800 h) and were allowed ad libidum access to chow and water. The HF/STZ mice were established as previously described. Briefly, C57BL/6j mice (Jackson labs) at 4 weeks of age were fed a high-fat diet (BioServ S1850, 35% fat) for 3-weeks and then injected with 95 mg/kg streptozotocin (Sigma) ip to induce beta cell dysfunction. The animals continued on the same high fat diet for 3–6 additional weeks. Animals were then randomized into treatment groups based on fasting blood glucose and insulin measures. NONcNZO10/LtJ (RCS10) male mice (Jackson labs) were used at 12-weeks of age and randomized for treatment based on fasting glucose levels. For OGTT experiments, drugs were formulated in 1% HPMC, 10% HPbCD, 1% Tween-80 and dosed via oral gavage. Glucose was administered at 2 g/kg 1-hour post drug dose by oral gavage.

[4] = system: wild type and GPR40 knockout mice; test: OGTT and GLP-1 secretion in wild type and GPR40 null mice; format: in vivo, mouse; conditions: wild type mice
Description: as §3
(§4) For all glucose tolerance tests, glucose and insulin measurements were taken from tail vein samples at various time-points. Blood glucose values were measured on an Accu-Chek glucometer (Roche Diagnostics), while insulin levels were determined using an ELISA (Alpco).

C57/Bl6 mice = test: IPGTT in C57BL/6j mice with or without GLP-1R antagonist Ex(9-39)NH2; format: in vivo, mouse
Description: An intraperitoneal rather than oral glucose challenge was performed in order to bypass the incretin effect of an oral glucose administration.
IPGTT experiments with Ex(9–39)NH2 (Bachem) were performed with male C57BL/6j (n = 6–7/group) at 26-weeks of age. Ex(9–39)NH2 was formulated in PBS containing 0.1%BSA and dosed ip at 300 µg/kg.
as §4

T1 sequence (O14842 whole entry): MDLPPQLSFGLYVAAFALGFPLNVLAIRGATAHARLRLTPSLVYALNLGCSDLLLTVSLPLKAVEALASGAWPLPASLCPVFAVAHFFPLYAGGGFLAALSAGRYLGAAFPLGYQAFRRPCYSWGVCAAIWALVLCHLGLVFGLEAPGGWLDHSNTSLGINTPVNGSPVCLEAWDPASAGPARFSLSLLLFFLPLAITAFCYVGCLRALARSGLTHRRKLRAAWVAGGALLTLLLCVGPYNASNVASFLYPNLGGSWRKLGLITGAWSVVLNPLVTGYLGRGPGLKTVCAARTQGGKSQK
PPAR delta, sequence (Q03181 whole entry): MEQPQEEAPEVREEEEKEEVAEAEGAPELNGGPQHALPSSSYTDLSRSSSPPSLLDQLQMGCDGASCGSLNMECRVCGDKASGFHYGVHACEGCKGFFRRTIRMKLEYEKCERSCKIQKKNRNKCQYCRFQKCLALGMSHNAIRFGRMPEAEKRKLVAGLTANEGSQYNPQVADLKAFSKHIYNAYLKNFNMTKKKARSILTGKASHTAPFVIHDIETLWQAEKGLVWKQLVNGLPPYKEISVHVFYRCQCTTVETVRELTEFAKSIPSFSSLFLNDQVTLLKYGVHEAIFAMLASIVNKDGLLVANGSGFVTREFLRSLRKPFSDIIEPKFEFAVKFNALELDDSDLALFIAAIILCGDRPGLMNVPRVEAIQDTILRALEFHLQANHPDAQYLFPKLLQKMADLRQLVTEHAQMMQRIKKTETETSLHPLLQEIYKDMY
mouse GPR40, sequence (Q76JU9 whole entry): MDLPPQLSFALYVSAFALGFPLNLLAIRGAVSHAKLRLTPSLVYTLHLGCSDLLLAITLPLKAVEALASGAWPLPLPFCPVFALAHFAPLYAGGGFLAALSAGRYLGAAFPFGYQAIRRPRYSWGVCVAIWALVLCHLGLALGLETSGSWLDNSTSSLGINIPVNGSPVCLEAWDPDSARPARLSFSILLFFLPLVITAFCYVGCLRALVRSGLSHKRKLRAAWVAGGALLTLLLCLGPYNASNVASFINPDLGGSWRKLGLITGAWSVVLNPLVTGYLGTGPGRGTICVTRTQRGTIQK
T2 sequence (Q5NUL3 whole entry, species assumed): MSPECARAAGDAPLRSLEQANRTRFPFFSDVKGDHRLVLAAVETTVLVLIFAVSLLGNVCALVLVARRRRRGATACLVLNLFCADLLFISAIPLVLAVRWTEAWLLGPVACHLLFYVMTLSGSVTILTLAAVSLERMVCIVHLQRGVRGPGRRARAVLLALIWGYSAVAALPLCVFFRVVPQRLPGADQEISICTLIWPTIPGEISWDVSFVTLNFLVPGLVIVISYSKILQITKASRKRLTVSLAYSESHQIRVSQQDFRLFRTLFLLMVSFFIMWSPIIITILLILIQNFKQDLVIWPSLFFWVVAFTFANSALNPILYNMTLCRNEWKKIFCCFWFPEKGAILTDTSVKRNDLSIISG
PPAR alpha, sequence (Q07869 whole entry, species assumed): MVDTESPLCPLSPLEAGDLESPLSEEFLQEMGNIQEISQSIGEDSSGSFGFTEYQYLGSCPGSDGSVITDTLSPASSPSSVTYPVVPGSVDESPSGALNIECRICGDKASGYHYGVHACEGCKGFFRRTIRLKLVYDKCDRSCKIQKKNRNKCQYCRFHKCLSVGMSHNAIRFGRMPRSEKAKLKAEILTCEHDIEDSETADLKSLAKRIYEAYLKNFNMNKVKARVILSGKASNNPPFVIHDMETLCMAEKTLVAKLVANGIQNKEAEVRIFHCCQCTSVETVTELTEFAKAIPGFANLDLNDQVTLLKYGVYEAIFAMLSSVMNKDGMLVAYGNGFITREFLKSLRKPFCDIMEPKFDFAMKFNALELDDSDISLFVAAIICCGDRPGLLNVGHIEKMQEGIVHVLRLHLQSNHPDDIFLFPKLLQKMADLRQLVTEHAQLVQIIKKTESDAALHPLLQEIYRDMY

- EC50 (GPR40 [1]): 0.16 ± 0.01 µM
- Emax (GPR40 [1]; compared to natural free fatty acid ligands, read-out: Emax (efficacy)): 100%
- displacement of 3H-AM-1638 (GPR40 [2]): displaced ^3H-AM-1638
- EC50 (GPR120): ~5 µM
- activation of PPAR alpha (PPAR alpha): did not activate
- activation of PPAR delta (PPAR delta): did not activate
- EC50 (mouse islets; read-out: EC50 for potentiation of insulin secretion): 0.99 ± 0.15 µM
- EC50 (mouse GPR40): 0.0129 ± 0.0014 µM
Compound: COc1ccc(F)c(-c2ccc(COc3cccc([C@@H](CC(=O)O)C4CC4)c3)cc2C2=CCCC2(C)C)c1 [AM-1638]
- increase of insulin secretion, fold from that of AMG 837 (mouse islets): 3–4 fold
- GSIS response of GPR40 knockout islets [3]: did not respond
- GIP secretion (HF/STZ mice): stimulated secretion of GIP
- blood glucose levels (HF/STZ mice; no glucose challenge): stabilized blood glucose levels
- plasma GLP-1 and insulin levels (HF/STZ mice; no glucose challenge, compared with AMG 837): markedly greater increase
- improvement in pre- and post-challenge glucose levels ([4]; OGTT, single oral dose): evident in wild type
- plasma GLP-1 levels ([4]; single dose 100 mg/kg): elicited an increase
- Glucose AUC reduction (C57/Bl6 mice; AM-1638 60 mg/kg alone): ~53%
- Glucose AUC reduction (C57/Bl6 mice; AM-1638 60 mg/kg in the presence of exendin(9-39)NH2 300 µg/kg ip): ~25%
